Reference: PubChem BioAssay (NCI)
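Where inhibition never reached the appropriate level, the endpoint shown equals the highest concentration tested. Otherwise, values were interpolated linearly from a five-concentration, 48-hour dose response in 96-well plates. TGI is the concentration that stops growth completely.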

Columns and labels:
Test in all cases: NCI-60 cell line screen, 48 h
[1] = system: SK-MEL-5 melanoma
[2] = system: OVCAR-8 ovarian
[3] = system: A549 NSCLC
[4] = system: UACC-257 melanoma
[5] = system: SF-268 CNS
[6] = system: PC-3 prostate
[7] = system: SNB-75 CNS
[8] = system: OVCAR-5 ovarian
[9] = system: ACHN renal
[10] = system: HOP-92 NSCLC

Compound | TGI [1] [µM] | TGI [2] [µM] | TGI [3] [µM] | TGI [4] [µM] | TGI [5] [µM] | TGI [6] [µM] | TGI [7] [µM] | TGI [8] [µM] | TGI [9] [µM] | TGI [10] [µM]
COc1ccc(/C=C/C(=O)c2cc(CN(C)C)c(O)c(CN(C)C)c2)cc1 | 32.4 | > 100 | > 100 | 38.8 | > 100 | 85.8 | > 100 | > 100 | > 100 | 
Clc1cc(Cl)nc(Nc2ccc3c(c2)CCC3)n1 | 57.5 | > 100 | > 100 | > 100 | > 100 | > 100 |  | > 100 | > 100 | > 100
C#CC(O)/C=C/C(O)CCCC(O)CC#CC(O)C#CCCCCC(O)/C=C/CCCC(=O)CCCCCCCCCCCCCCCC(O)C(O)C#CC(=O)O (stereo not drawn) | > 25 | > 25 | > 25 | > 25 | > 25 | > 25 | > 25 | > 25 | > 25 | > 25
CSCCC(NC(=O)C(Cc1c[nH]c2ccccc12)NC(=O)CCNC(=O)OC(C)(C)C)C(=O)NC(CC(=O)O)C(=O)NC(Cc1ccccc1)C(N)=O (stereo not drawn) | > 50 |  | > 50 | > 50 | > 50 | > 50 | > 50 | > 50 |  | > 50
O=C(NNC(=O)c1ccncc1)C(=O)Nc1cc(Cl)c(Cl)cc1Cl | > 100 | > 100 | > 100 | > 100 | > 100 | > 100 | > 100 | > 100 | > 100 | > 100
Cc1c(C(=O)O)sc2nc[nH]c(=O)c12 | > 100 | > 100 | > 100 | > 100 | > 100 | > 100 | > 100 | > 100 | > 100 | > 100
O=C(O)c1c(CC(Cc2ccccc2)C(=O)O)ccc2c1CCC2 (stereo not drawn) | > 100 | > 100 | > 100 | > 100 | > 100 | > 100 | > 100 | > 100 | > 100 | > 100
COc1ccc(-c2nc(-c3cnccn3)n(C/C=C/c3ccccc3)n2)cc1 | > 100 | > 100 | > 100 | > 100 |  | > 100 | 51.7 | > 100 |  | 37
CC1=NN(c2ccccc2)C(=O)/C1=C\c1c(C)[nH]n(-c2ccccc2)c1=O | > 100 | > 100 | > 100 | > 100 | > 100 | > 100 | > 100 | > 100 | > 100 | 90.5
CC1(C)CC(=O)C2=C(C1)NC(=S)C(C#N)C2c1ccccc1 (stereo not drawn) | > 100 | > 100 | > 100 | > 100 | > 100 | > 100 | > 100 | > 100 | > 100 | > 100
CCOC(=O)c1c(SC(=O)c2ccc(Cl)cc2)n(-c2ccccc2)c(=S)n(-c2ccccc2)c1=O |  | > 100 | > 100 | > 100 | > 100 | > 100 | > 100 | > 100 | > 100 | > 100
